Laboratory results from US20250230129A1, “POLYAMIDE COMPOUNDS, METHOD FOR PREPARING SAME, AND MEDICAL USE THEREOF” (priority 2022, published 2025).
Like-named read-outs stand apart in the source and are kept apart here. Square brackets hold non-standard residues; d marks the D form. Peptide text beside a SMILES is read from it. * marks the point of attachment. Gly(N-(2R-Ph-propyl)) = C[C@@H](CNCC(=O)O)c1ccccc1; Piperidin1yl(4-NH2,4-COOH) = NC1(C(=O)O)CCN(*)CC1; dPhLac = O=C(O)[C@H](O)Cc1ccccc1; X4 = COC(=O)NC1CCN(*)CC1

Legend:
κ receptor = κ receptor (Homo sapiens (Human), UniProt P41145); experiment: Competitive Kappa receptor binding assay (3H-U69593)
[1] = target: κ-opioid receptor (Kappa) (Homo sapiens (Human), UniProt P41145); experiment: In vitro functional assay, HTRF cAMP-Gi in CHO-K1-OPRK1 cells; assay type: cell-based
[2] = Autonomous activity test in mice; conditions: male, ICR, mouse, in vivo, iv
μ receptor = μ receptor (Homo sapiens (Human), UniProt P35372); experiment: μ receptor affinity assay (3H-DAMGO); assay type: binding
ICR mice [3] = experiment: Sedation safety window; conditions: sedation side effect ED50 (autonomic activity test)/efficacy ED50 (acetic acid writhing test)
[4] = PK and blood-brain barrier permeability in mice; assay type: in vivo; conditions: male ICR mice, intravenous 1 mg/kg; for AUC(0-inf) / Vd / clearance / half-life / Cmax: plasma; for half-life: read-out: t½ (converted)
Description: The compounds of the present disclosure were investigated for pharmacokinetic characteristics and blood-brain barrier permeability in mice.
Healthy male ICR mice were randomly grouped, 6 animals per group. For each test compound, 3 groups of animals were used. The first group of animals was used for collecting blood and brain 5 min after the administration, and the second group of animals and the third group of animals were used for cross blood collection at subsequent time points; each test compound was intravenously administered (1 mg/kg) to corresponding groups of mice, and blood sampling via submaxillary veins of the mice was carried out at different time points. Drug contents in plasma and brain tissues at different time points were measured by an LC-MS/MS method, the brain-to-blood ratio B/P was calculated by using EXCEL software, and pharmacokinetic parameters were calculated by using DAS3.0 software.

δ receptor = δ receptor (Homo sapiens (Human), UniProt P41143); experiment: Competitive delta receptor binding assay (3H-DADLE)
ICR mice [5] = experiment: Acetic acid writhing test in mice; assay type: in vivo; conditions: Mus musculus; single intravenous injection, male ICR mice; read-out: Acetic acid writhing in mice ED50
hERG = hERG (Homo sapiens (Human), UniProt Q12809); experiment: in vitro; conditions: pH 7.4
[6] = blood and brain 5 min after administration

Row | SMILES | Ki (κ receptor) [nM] | EC50 [1] [nM] | ED50 at 30 min [2] [mg/kg] | Ki (μ receptor) [nM] | Safety window (ICR mice [3]) | B/P (brain-to-blood ratio) [4, 6] | AUC(0-inf) ([4]; mouse) [ng·h/mL] | Vd ([4]; mouse) [L/kg] | clearance ([4]; mouse) [mL/min/kg] | half-life ([4]; mouse) [min] | Cmax ([4]; mouse) [ng/mL] | Ki (δ receptor) [nM] | ED50 (ICR mice [5]) [mg/kg] | inhibition at 10 µM (hERG) [%] | Kp at 5 min ([4]; mouse, brain/plasma, blood and brain 5 min after administration, read-out: B/P (brain-to-blood ratio)) | Ki (κ receptor; read-out: κ receptor Ki) [nM] | EC50 ([1]; read-out: In vitro agonistic effects on k-opioid receptors EC50) [nM] | Ki (μ receptor; read-out: μ receptor Ki) [nM] | Ki (δ receptor; read-out: δ receptor Ki) [nM]
1 | CC(C)C[C@@H](NC(=O)[C@@H](Cc1ccccc1)NC(=O)N(Cc1ccccc1)C1CCNC1)C(=O)N[C@H](CCCCN)C(=O)N1CCC(N)(C(=O)O)CC1 (stereo partly shown) [Compound 27] | 0.88 | 0.87 | 4.59 | > 1000 | 5.22 | 0.010 | 1160 | 0.63 | 14.7 | 30 | 2320 | > 1000 | 0.88 |  |  |  |  |  | 
2 | COC(=O)C1(N)CCN(C(=O)[C@@H](CCCCN)NC(=O)[C@@H](CC(C)C)NC(=O)[C@@H](Cc2ccccc2)NC(=O)N(CCN)Cc2ccccc2)CC1 [Compound 13-2, methyl 4-amino-1-[(2R)-6-amino-2-[(2R)-2-[(2R)-2-{[2-aminoethyl(benzyl)carbamoyl]amino}-3-phenylpropionylamino]-4-methylpentanoylamino]hexanoyl]piperidine-4-carboxylate] | 0.13 | 0.13 | 2.75 | > 1000 | 16.18 | BQL** | 1690 | 0.63 | 10 | 43.2 | 2930 | > 1000 | 0.17 |  |  |  |  |  | 
3 | CC(C)C[C@@H](NC(=O)[C@@H](Cc1ccccc1)NC(=O)CNC[C@H](C)c1ccccc1)C(=O)N[C@H](CCCCN)C(=O)N1CCC(N)(C(=O)O)CC1 [Comparative Example 1B, reference compound] (H-[Gly(N-(2R-Ph-propyl))][dF][dL][dK]-{Piperidin1yl(4-NH2,4-COOH)}) |  |  | 0.59 |  | 2.36 |  |  |  |  |  |  |  | 0.25 |  |  |  |  |  | 
4 | COC(=O)NC1CCN(C(=O)[C@@H](CCCCN)NC(=O)[C@@H](CC(C)C)NC(=O)[C@@H](Cc2ccccc2)NC(=O)[C@H](O)Cc2ccccc2)CC1 [Compound 11] (H-[dPhLac][dF][dL][dK]-X4) | 0.94 | 5.1 | 9.6 | > 1000 | 5.27 |  |  |  |  |  |  | > 1000 | 1.82 |  |  |  |  |  | 
5 | CC(C)C[C@@H](NC(=O)[C@@H](Cc1ccccc1)NC(=O)C[C@@H](N)c1ccccc1)C(=O)N[C@H](CCCCN)C(=O)N1CCC(N)(C(=O)O)CC1 [Compound 4-0, 4-amino-1-[(2R)-6-amino-2-[(2R)-2-[(2R)-2-((3R)-3-amino-3-phenylpropionylamino)-3-phenylpropionylamino]-4-methylpentanoylamino]hexanoyl]piperidine-4-carboxylic acid] | 2.8 | 3.62 | 7.34 | > 1000 | 6.44 |  |  |  |  |  |  | > 1000 | 1.14 |  |  |  |  |  | 
6 | CC(C)C[C@@H](NC(=O)[C@@H](Cc1ccccc1)NC(=O)N(C)C(CN)c1ccccc1)C(=O)N[C@H](CCCCN)C(=O)N1CCS(=N)(=O)CC1 (stereo partly shown) [Compound 10] | 0.86 | 1.1 |  | > 1000 |  | 0.007 | 4010 | 0.29 | 4.17 | 49.2 | 3220 | > 1000 |  |  |  |  |  |  | 
7 | CC(=O)NC1CCN(C(=O)[C@@H](CCCCN)NC(=O)[C@@H](CC(C)C)NC(=O)[C@@H](Cc2ccccc2)NC(=O)N(CCN)Cc2ccccc2)CC1 [Compound 45] | 0.52 | 0.16 |  | > 1000 |  |  |  |  |  |  |  | > 1000 |  |  |  |  |  |  | 
8 | CC(C)C[C@@H](NC(=O)[C@@H](Cc1ccccc1)NC(=O)N(CCN)Cc1ccccc1)C(=O)N[C@H](CCCCN)C(=O)N1CCS(=O)(=O)CC1 [Compound 21] | 0.33 | 0.68 | 1.42 | > 1000 | 2.82 | 0.010 | 2670 | 0.63 | 6.33 | 69 | 3460 | > 1000 | 0.5 |  |  |  |  |  | 
9 | CN=S1(=O)CCN(C(=O)[C@@H](CCCCN)NC(=O)[C@@H](CC(C)C)NC(=O)[C@@H](Cc2ccccc2)NC(=O)N(CCN)Cc2ccccc2)CC1 [Compound 20] | 0.58 | 0.52 |  | > 1000 |  |  |  |  |  |  |  | > 1000 |  |  |  |  |  |  | 
10 | COC(=O)NC1CCN(C(=O)[C@@H](CCCCN)NC(=O)[C@@H](CC(C)C)NC(=O)[C@@H](Cc2ccccc2)NC(=O)N(C)C(CN)c2ccccc2)CC1 (stereo partly drawn) [Compound 12, methyl N-{1-[(2R)-6-amino-2-[(2R)-2-[(2R)-2-{[(2-amino-1-phenylethyl)(methyl)carbamoyl]amino}-3-phenylpropionylamino]-4-methylpentanoylamino]hexanoyl]piperidin-4-yl}carbamate] | 0.53 | 0.17 |  | > 1000 |  |  | 3680 | 0.54 | 4.67 | 85.2 | 2260 | > 1000 |  | 2.13 | 0.008 |  |  |  | 
11 | CC(C)C[C@@H](NC(=O)[C@@H](Cc1ccccc1)NC(=O)N(CCN)Cc1ccccc1)C(=O)N[C@H](CCCCN)C(=O)N1CCC2(CC1)NC(=O)NC2=O [Compound 29] | 0.63 | 0.058 | 1.35 | > 1000 | 3.28 | 0.010 | 3340 | 0.32 | 5.17 | 44.4 | 4710 | > 1000 | 0.41 |  |  |  |  |  | 
12 | CC(C)C[C@@H](NC(=O)[C@@H](Cc1ccccc1)NC(=O)N(C)C(CN)c1ccccc1)C(=O)N[C@H](CCCCN)C(=O)N1CCC(NC(=O)OC2CCOCC2)CC1 (stereo partly shown) [Compound 33] | 0.56 | 0.81 |  | > 1000 |  |  |  |  |  |  |  | > 1000 |  |  |  |  |  |  | 
13 | CC(C)C[C@@H](NC(=O)[C@@H](Cc1ccccc1)NC(=O)N(CCN)Cc1ccc(F)cc1)C(=O)C[C@H](CCCCN)C(=O)N1CCC(N)(C(=O)O)CC1 [Compound 50] |  |  |  |  |  |  |  |  |  |  |  |  |  |  |  | 0.27 | 0.43 | > 1000 | > 1000
14 | CC(C)C[C@@H](NC(=O)[C@@H](Cc1ccccc1)NC(=O)N(C)C(CN)c1ccccc1)C(=O)N[C@H](CCCCN)C(=O)N1CCS(=O)(=O)CC1 (stereo partly shown) [Compound 36] | 0.98 | 0.35 |  | > 1000 |  |  |  |  |  |  |  | > 1000 |  |  |  |  |  |  | 
15 | CNC(=O)NC1CCN(C(=O)[C@@H](CCCCN)NC(=O)[C@@H](CC(C)C)NC(=O)[C@@H](Cc2ccccc2)NC(=O)N(CCN)Cc2ccccc2)CC1 [Compound 17] | 0.44 | 0.3 |  | > 1000 |  |  |  |  |  |  |  | > 1000 |  |  |  |  |  |  | 
16 | CC(C)C[C@@H](NC(=O)[C@@H](Cc1ccccc1)NC(=O)N(CCN)Cc1ccccc1)C(=O)N[C@H](CCCCN)C(=O)N1CCNCC1 [Compound 40] | 0.58 | 0.13 |  | > 1000 |  |  |  |  |  |  |  | > 1000 |  |  |  |  |  |  | 
